Inhibition data for 1 compound are collected here from publication PMC2577671, “Evaluation of Dimebon in cellular model of Huntington's disease” (Molecular Neurodegeneration, 2008).

The data set concerns the target T1, CYP450, 2C9 (Homo sapiens, UniProt P11712).
T1 construct: gene CYP2C9
The experiment in a line: in vitro. Further details: MDS Pharma Lead Profiling + CYP450 screen, enzyme assays, per cent inhibition, duplicate. The protocol:
The activity of Dimebon against selected set of biochemical targets was performed by MDS Pharma Services . The Dimebon was provided to MDS Pharma as dry powder, dissolved in DMSO and tested in 10 μM concentrations. The standard Lead Profiling + CYP450 screen was performed according to MDS Pharma specifications with additional custom-chosen targets added to the screen as indicated. To further understand potential mechanisms responsible for clinical effects of Dimebon, we evaluated Dimebon against a set of selected biochemical targets. Dimebon evaluation was performed by MDS Pharma Services . The standard Lead Profiling + CYP450 screen was performed with additional custom-selected targets added to the screen. The results of the screen obtained at 10 μM of Dimebon are provided as Additional File 3. […] Low affinity (50–60% inhibition) interactions were also observed for CYP450, 2C19 receptor, voltage-gated L-type Ca^2+ channel, Dopamine D4.2 receptor, and Serotonin 5-HT1 receptor. […] Supplementary file 1750-1326-3-15-S3.pdf: Additional file 3 The results of Dimebon screening against a selected set of biochemical targets. The complete results obtained by MDS Pharma with a selected list of biochemical targets using 10 μM of Dimebon as a probe. The Cat numbers refer to the MDS Pharma Services assay specification. The receptors and species are listed. Dimebon was tested at 10 μM concentratio in duplicate. The % inhibition by Dimebon is shown numerically and graphically for each receptor. Significant targets (defined as % inhibition > 50%) are highlighted in yellow. Click here for file

T1 sequence (P11712 whole entry): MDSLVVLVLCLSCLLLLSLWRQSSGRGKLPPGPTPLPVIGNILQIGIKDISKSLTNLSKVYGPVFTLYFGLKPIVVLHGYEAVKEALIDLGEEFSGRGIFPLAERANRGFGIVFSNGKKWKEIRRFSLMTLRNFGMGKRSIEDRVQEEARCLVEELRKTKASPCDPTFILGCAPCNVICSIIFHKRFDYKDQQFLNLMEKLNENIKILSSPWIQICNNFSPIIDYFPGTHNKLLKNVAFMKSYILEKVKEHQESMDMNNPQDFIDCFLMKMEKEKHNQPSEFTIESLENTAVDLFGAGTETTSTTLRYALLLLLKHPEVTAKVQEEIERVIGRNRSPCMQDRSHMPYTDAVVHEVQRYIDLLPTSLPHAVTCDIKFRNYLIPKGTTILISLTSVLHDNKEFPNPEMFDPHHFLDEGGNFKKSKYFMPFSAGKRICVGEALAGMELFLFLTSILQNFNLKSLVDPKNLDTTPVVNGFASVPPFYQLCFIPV

For the compound `Cc1ccc2c(c1)c1c(n2CCc2ccc(C)nc2)CCN(C)C1` [Dimebon, 2,3,4,5-Tetrahydro-2,8-dimethyl-5-(2-(6-methyl-3-pyridyl)ethyl)-1H-pyrido(4,3-b)indole], the inhibition at 10 µM is 2%.
